Molecular target: ALK2 (Homo sapiens (Human), UniProt Q04771)
Test: ALK2 inhibition, LanthaScreen Eu Kinase Binding Assay (ThermoFisher Scientific / Life Technologies)
Details: read-out: Measured Ki (IC50) Value for Compounds: IC50
Method: Biochemical assays to measure the inhibitory effects of the compounds were performed by ThermoFisher Scientific (Life Technologies). ALK2 inhibition was tested using LanthaScreen™ Eu Kinase Binding Assay screening protocol.

ALK2, sequence (Q04771 21-509): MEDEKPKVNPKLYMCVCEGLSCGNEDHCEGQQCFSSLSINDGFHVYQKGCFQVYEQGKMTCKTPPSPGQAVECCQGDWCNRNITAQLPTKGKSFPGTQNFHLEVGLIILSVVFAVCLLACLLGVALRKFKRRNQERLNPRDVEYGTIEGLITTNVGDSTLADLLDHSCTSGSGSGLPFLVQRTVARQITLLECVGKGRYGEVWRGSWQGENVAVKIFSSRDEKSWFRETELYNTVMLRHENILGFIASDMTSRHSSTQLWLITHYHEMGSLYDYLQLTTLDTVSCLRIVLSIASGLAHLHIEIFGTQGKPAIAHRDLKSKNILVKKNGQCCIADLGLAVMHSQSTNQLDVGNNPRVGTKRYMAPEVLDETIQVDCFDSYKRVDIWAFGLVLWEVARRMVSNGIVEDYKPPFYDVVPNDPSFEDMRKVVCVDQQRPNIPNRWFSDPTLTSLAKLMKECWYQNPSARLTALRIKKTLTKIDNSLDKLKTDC

Structure (SMILES) | IC50
COc1cc(-n2cnc(Nc3nc(N4CCCC4)c4cccn4n3)c2)cc(OC)c1OC [Compound 168b, 4-(pyrrolidin-1-yl)-N-(1-(3,4,5-trimethoxyphenyl)-1H-imidazol-4-yl)pyrrolo[2,1-f][1,2,4]triazin-2-amine] | 100 to 1000 nM
COc1cc(-n2cnc(Nc3nc(N4CCC[C@H]4CO)c4ccn(S(=O)(=O)c5ccc(C)cc5)c4n3)c2)cc(OC)c1OC [Compound 159b, (S)-(1-(7-tosyl-2-((1-(3,4,5-trimethoxyphenyl)-1H-imidazol-4-yl)amino)-7H-pyrrolo[2,3-d]pyrimidin-4-yl)pyrrolidin-2-yl)methanol] | > 1000 nM
COc1ccc(-n2cnc(Nc3nc(N4CCC[C@H]4CO)c4cccn4n3)c2)cc1OC [Compound 243a, (S)-(1-(2-((1-(3,4-dimethoxyphenyl)-1H-imidazol-4-yl)amino)pyrrolo[2,1-f][1,2,4]triazin-4-yl)pyrrolidin-2-yl)methanol] | 100 to 1000 nM
COc1cc(-n2cnc(Nc3nc(N4CCC[C@H]4C(N)=O)nc4c3c(C)nn4C)c2)cc(OC)c1OC [Compound 373c, (S)-1-(1,3-dimethyl-4-((1-(3,4,5-trimethoxyphenyl)-1H-imidazol-4-yl)amino)-1H-pyrazolo[3,4-d]pyrimidin-6-yl)pyrrolidine-2-carboxamide] | > 1000 nM
COc1cc(-n2cnc(Nc3nc(N4CCC[C@H]4C(N)=O)c4cccn4n3)c2)cc(C(N)=O)c1OC [Compound 230f, (S)-1-(2-((1-(3-carbamoyl-4,5-dimethoxyphenyl)-1H-imidazol-4-yl)amino)pyrrolo[2,1-f][1,2,4]triazin-4-yl)pyrrolidine-2-carboxamide] | > 1000 nM
COc1cc(-n2cnc(Nc3nc(N4CCC[C@H]4C(N)=O)nc4cnccc34)c2)cc(OC)c1OC [Compound 379a, (S)-1-(4-((1-(3,4,5-trimethoxyphenyl)-1H-imidazol-4-yl)amino)pyrido[3,4-d]pyrimidin-2-yl)pyrrolidine-2-carboxamide] | < 100 nM
COC(=O)c1cc(Nc2cn(-c3cc(OC)c(OC)c(OC)c3)cn2)c2occc2c1 [Compound 411b, methyl 7-((1-(3,4,5-trimethoxyphenyl)-1H-imidazol-4-yl)amino)benzofuran-5-carboxylate] | 100 to 1000 nM
COc1cc(-n2cnc(Nc3nc(N4CCC[C@H]4C(N)=O)nc4c3CCN(C(=O)OC(C)(C)C)C4)c2)cc(OC)c1OC [Compound 185a, (S)-tert-butyl 2-(2-carbamoylpyrrolidin-1-yl)-4-((1-(3,4,5-trimethoxyphenyl)-1H-imidazol-4-yl)amino)-5,6-dihydropyrido[3,4-d]pyrimidine-7(8H)-carboxylate] | < 100 nM
COc1cc(-n2cnc(Nc3nc(N4CCC[C@@H]4C(N)=O)nc4c3CCC4)c2)cc(OC)c1OC [Compound 291a, (R)-1-(4-((1-(3,4,5-trimethoxyphenyl)-1H-imidazol-4-yl)amino)-6,7-dihydro-5H-cyclopenta[d]pyrimidin-2-yl)pyrrolidine-2-carboxamide] | < 100 nM
COc1cc(-n2cnc(Nc3nc(N4CCC[C@H]4C(N)=O)nc4sc(CN5CCN(C)CC5)cc34)c2)cc(OC)c1OC [Compound 405b, (S)-1-(6-((4-methylpiperazin-1-yl)methyl)-4-((1-(3,4,5-trimethoxyphenyl)-1H-imidazol-4-yl)amino)thieno[2,3-d]pyrimidin-2-yl)pyrrolidine-2-carboxamide] | < 100 nM
COc1cc(-n2cnc(Nc3nc(N4CCC[C@H]4CO)c4cccn4n3)c2)cc(OC)c1OC [Compound 96b, (S)-(1-(2-((1-(3,4,5-trimethoxyphenyl)-1H-imidazol-4-yl)amino)pyrrolo[2,1-f][1,2,4]triazin-4-yl)pyrrolidin-2-yl)methanol] | < 100 nM
COc1cc(-n2cnc(Nc3nc(N4CCC[C@@H]4C(N)=O)c4cccn4n3)c2)cc(OC)c1OC [Compound 176b, (R)-1-(2-((1-(3,4,5-trimethoxyphenyl)-1H-imidazol-4-yl)amino)pyrrolo[2,1-f][1,2,4]triazin-4-yl)pyrrolidine-2-carboxamide] | 100 to 1000 nM
OC[C@@H]1CCCN1c1nc(Nc2cn(-c3cccc(F)c3)cn2)c2cccn2n1 [Compound 44c, (S)-(1-(4-((1-(3-fluorophenyl)-1H-imidazol-4-yl)amino)pyrrolo[2,1-f][1,2,4]triazin-2-yl)pyrrolidin-2-yl)methanol] | < 100 nM
COc1cc(-n2cnc(Nc3nc(N4CCC[C@H]4CO)c4ccc(-c5cccc(N)c5)cc4n3)c2)cc(OC)c1OC [Compound 361c, (S)-(1-(7-(3-aminophenyl)-2-((1-(3,4,5-trimethoxyphenyl)-1H-imidazol-4-yl)amino)quinazolin-4-yl)pyrrolidin-2-yl)methanol] | < 100 nM
COc1cccc(-n2cnc(Nc3nc(N4CCC[C@H]4CO)nn4cccc34)c2)c1 [Compound 56c, (S)-(1-(4-((1-(3-methoxyphenyl)-1H-imidazol-4-yl)amino)pyrrolo[2,1-f][1,2,4]triazin-2-yl)pyrrolidin-2-yl)methanol] | < 100 nM
Cn1cnc(Nc2nc(N3CCC[C@H]3c3ccccn3)nn3cccc23)c1 [Compound 18a, (S)—N-(1-methyl-1H-imidazol-4-yl)-2-(2-(pyridin-2-yl)pyrrolidin-1-yl)pyrrolo[2,1-f][1,2,4]triazin-4-amine] | < 100 nM
COc1cc(-c2cnc(Nc3nc(N4CCC[C@H]4CO)c4cccn4n3)s2)cc(OC)c1OC [Compound 476a, (S)-(1-(2-((5-(3,4,5-trimethoxyphenyl)thiazol-2-yl)amino)pyrrolo[2,1-f][1,2,4]triazin-4-yl)pyrrolidin-2-yl)methanol] | < 100 nM
COc1cc(-n2cnc(Nc3nc(N4CCC[C@H]4CO)nc4cc(OC(C)C)ccc34)c2)cc(OC)c1OC [Compound 145h, (S)-(1-(7-isopropoxy-4-((1-(3,4,5-trimethoxyphenyl)-1H-imidazol-4-yl)amino)quinazolin-2-yl)pyrrolidin-2-yl)methanol] | < 100 nM
COc1cc(-n2cnc(Nc3nc(N4CCC[C@H]4CO)nc4sccc34)c2)cc(OC)c1OC [Compound 84b, (S)-(1-(4-((1-(3,4,5-trimethoxyphenyl)-1H-imidazol-4-yl)amino)thieno[2,3-d]pyrimidin-2-yl)pyrrolidin-2-yl)methanol] | < 100 nM

Continued, values first:

IC50 | Structure (SMILES)
< 100 nM | OCc1cc2nc(N3CCC[C@H]3CO)nc(Nc3cn(-c4ccccc4)cn3)c2s1 [Compound 78f, (S)-(1-(6-(hydroxymethyl)-4-((1-phenyl-1H-imidazol-4-yl)amino)thieno[3,2-d]pyrimidin-2-yl)pyrrolidin-2-yl)methanol]
< 100 nM | COc1cc(-n2cnc(Nc3nc(N4CCC[C@H]4C(N)=O)nc4ccsc34)c2)cc(OC)c1OC [Compound 189a, (S)-1-(4-((1-(3,4,5-trimethoxyphenyl)-1H-imidazol-4-yl)amino)thieno[3,2-d]pyrimidin-2-yl)pyrrolidine-2-carboxamide]
< 100 nM | COc1cc(-n2cnc(Nc3nc(N4CCC[C@H]4CO)c4c(C)nn(C)c4n3)c2)cc(OC)c1OC [Compound 377b, (S)-(1-(1,3-dimethyl-6-((1-(3,4,5-trimethoxyphenyl)-1H-imidazol-4-yl)amino)-1H-pyrazolo[3,4-d]pyrimidin-4-yl)pyrrolidin-2-yl)methanol]
< 100 nM | COc1cc(-n2cnc(Nc3nc(N4CCC[C@H]4CO)nc4c3COC4)c2)cc(OC)c1OC [Compound 281b, (S)-(1-(4-((1-(3,4,5-trimethoxyphenyl)-1H-imidazol-4-yl)amino)-5,7-dihydrofuro[3,4-d]pyrimidin-2-yl)pyrrolidin-2-yl)methanol]
< 100 nM | COc1cc(-n2cnc(Nc3nc(N4CCC[C@H]4CO)c4c(cnn4C)n3)c2)cc(OC)c1OC [Compound 328c, (S)-(1-(1-methyl-5-((1-(3,4,5-trimethoxyphenyl)-1H-imidazol-4-yl)amino)-1H-pyrazolo[4,3-d]pyrimidin-7-yl)pyrrolidin-2-yl)methanol]
< 100 nM | COc1cc(-n2cnc(Nc3nc(N4CCC[C@H]4CO)nn4c(CN5CCNCC5)ccc34)c2)cc(OC)c1OC [Compound 122a, (S)-(1-(7-(piperazin-1-ylmethyl)-4-((1-(3,4,5-trimethoxyphenyl)-1H-imidazol-4-yl)amino)pyrrolo[2,1-f][1,2,4]triazin-2-yl)pyrrolidin-2-yl)methanol]
< 100 nM | COc1cc(-n2cnc(Nc3nc(N4CCC[C@H]4CO)c4c(C)nn([C@H]5C[C@@H](N)C5)c4n3)c2)cc(OC)c1OC [Compound 444c, ((S)-1-(1-((cis)-3-aminocyclobutyl)-3-methyl-6-((1-(3,4,5-trimethoxyphenyl)-1H-imidazol-4-yl)amino)-1H-pyrazolo[3,4-d]pyrimidin-4-yl)pyrrolidin-2-yl)methanol]
< 100 nM | COc1cc(-n2cnc(Nc3nc(N4CCC[C@H]4CO)nc4c3CCN(CCC(N)=O)C4)c2)cc(OC)c1OC [Compound 254a, (S)-3-(2-(2-(hydroxymethyl)pyrrolidin-1-yl)-4-((1-(3,4,5-trimethoxyphenyl)-1H-imidazol-4-yl)amino)-5,6-dihydropyrido[3,4-d]pyrimidin-7(8H)-yl)propanamide]
< 100 nM | COc1cc(-n2cnc(Nc3nc(N4C[C@@H]5C[C@@H]5[C@H]4CO)c4cccn4n3)c2)cc(OC)c1OC [Compound 332b, ((1S,2S,5R)-3-(2-((1-(3,4,5-trimethoxyphenyl)-1H-imidazol-4-yl)amino)pyrrolo[2,1-f][1,2,4]triazin-4-yl)-3-azabicyclo[3.1.0]hexan-2-yl)methanol]
< 100 nM | COc1cc(-n2cnc(Nc3nc(N4CCC[C@H]4CO)c4ccc(-c5cccc(NC(C)=O)c5)cc4n3)c2)cc(OC)c1OC [Compound 364b, (S)—N-(3-(4-(2-(hydroxymethyl)pyrrolidin-1-yl)-2-((1-(3,4,5-trimethoxyphenyl)-1H-imidazol-4-yl)amino)quinazolin-7-yl)phenyl)acetamide]
< 100 nM | COc1cc(-n2cnc(Nc3nc(N4CCC[C@H]4CO)nc4sc(CN5CCN(C)CC5)cc34)c2)cc(OC)c1OC [Compound 104b, (S)-(1-(6-((4-methylpiperazin-1-yl)methyl)-4-((1-(3,4,5-trimethoxyphenyl)-1H-imidazol-4-yl)amino)thieno[2,3-d]pyrimidin-2-yl)pyrrolidin-2-yl)methanol]

— patent publication US11661426B2, “Imidazole-containing inhibitors of ALK2 kinase” (BioCryst Pharmaceuticals, Inc., priority 2017, dated 2023)
